# Test results from paper PMC9198986, “Controlling Doxorubicin Release from a Peptide Hydrogel through Fine-Tuning of Drug–Peptide Fiber Interactions” (Biomacromolecules, 2022).
# Where no end group is shown, it is not given here.
# Legend:
# 3T3 murine fibroblasts = test: 3T3 fibroblast viability under hydrogel inserts (PicoGreen dsDNA); type: cell-based, mouse; settings: non-loaded 14 mM hydrogel in insert above 3T3 cells; for cell viability with non-loaded hydrogels: over 48 h, PicoGreen dsDNA
# Experimental: 3T3 murine fibroblasts were seeded (1.5 × 10^4 cells cm^–2) in 12-well cell culture plates and 1.5 mL of DMEM supplemented with 10% FBS added per well. 400 μl of hydrogels (14 mM) with and without Dox (240 μM) were plated within 12-well cell culture plate inserts (ThinCert, Greiner Bio-One, pore size 1 μm) and placed above the cells. At selected time points, cells were retrieved from the cell culture wells, and the amount of double-stranded DNA (dsDNA) content was measured using PicoGreen dsDNA assay (Life Technologies, Carlsbad, CA, USA) following the manufacturer’s protocol.
# Finally, we confirmed that the Dox released from the hydrogels was still active by investigating its effect on 3T3 mouse fibroblasts. This was achieved by culturing the fibroblasts in 2D in cell culture wells and placing the hydrogels (loaded and non-loaded with Dox) in inserts equipped with porous membranes above the cells (see schematics in Figure 6). This experimental setup was used to avoid a direct contact between the hydrogels and the cells but still allow the drug to diffuse from the hydrogels into the cell culture media. Dox is known to affect cell proliferation and viability via DNA intercalation and inhibition of topoisomerase II.[24],[25] Therefore, at the selected time points, the effect of Dox on fibroblasts viability was evaluated by measuring the total amount of double-stranded DNA (dsDNA), which is directly proportional to the number of live cells present.
# [1] = Gels biodegradability: fraction of intact peptide after incubation in 50% FBS (RP-HPLC); type: in vitro ADME, bovine; settings: 14 mM hydrogel, 37 °C; for level of degradation up to 12 h: first 12 h; for susceptibility to enzymatic degradation, rank: up to 72 h
# Experimental: Peptide hydrogels (14 mM) were incubated in either PBS or 50% FBS ddH2O solution at 37 °C. At selected time points (2, 5, 10, 24, 48, and 72 h), the gels were disassembled by dilution to 1 mg mL^–1 in a 1% trifluoroacetic acid (TFA) water/acetonitrile (50/50 v/v) solution. Reversed phase-high-performance liquid chromatography (RP-HPLC) analyses were conducted at 25 °C on an Ultimate 3000 HPLC system (Dionex) equipped with a variable wavelength UV detector (wavelength used 210 nm) and a gradient pump. Separation was performed on a Phenomenex Jupiter 4μ Proteo column 90A° (250 × 4.66 mm) fitted with a 300 Guard Cartridge (4.3 × 10 mm). A flow rate of 1 mL min^–1 was used for all separations. The mobile phase consisted of a mixture of water: TFA(0.1%)—solvent A and acetonitrile/TFA(0.1%)—solvent B. An elution gradient of 90% solvent A/10% solvent B to 30% solvent A/70% solvent B over 45 min was used. 100 μL of sample aliquots was injected into the column using an ACC-3000 autosampler. Data were analyzed using Chromoleon 6.80 software. The peptide stability was expressed as a fraction of intact peptide present in the sample at sampling time t using the following equation [drawing 1] 1 where AUCPBS (t) and AUCFBS (t) are the intact peptide peak areas under the HPLC curves obtained at the sampling time t for hydrogels incubated with PBS and 50% FBS ddH2O solutions, respectively.
# We also examined the susceptibility of these peptide hydrogels to enzymatic degradation by incubating them in a 50 FBS/50 PBS media mixture. At the selected time points, the samples were homogenized (release buffer + remaining hydrogel), and the fraction of intact, that is, nondegraded peptide was estimated via HPLC. FBS contains a wide array of proteases and other enzymes that will degrade proteins and peptides. […] Dox release was also measured using a 50 FBS/50 PBS mixture as release media. […] From 24 h onward, similar release profiles were obtained in the presence and absence of FBS, probably due to the fact that by then most of the Dox has been released, and the supernatant release media is reaching saturation (Figure S5).
Sequence,cell viability with non-loaded hydrogels (3T3 murine fibroblasts),"hydrogel degradation at later times ([1]; >24 h, RP-HPLC)",level of degradation up to 12 h ([1]; RP-HPLC),level of degradation ([1]; RP-HPLC),"susceptibility to enzymatic degradation, rank ([1]; RP-HPLC)","dsDNA detected after 48 h as % of the amount at t = 0 (3T3 murine fibroblasts; DMEM 10% FBS, 48 h, PicoGreen)","peptide degraded ([1]; after 5 h, RP-HPLC UV 210 nm, intact peak area vs PBS incubation)"
FEFEFKFE [FE],good cell viabilities,more substantial,low levels of degradation,–,–,–,–
FEFKFEFK [F8],good cell viabilities,–,–,minimal degradation,–,–,–
FEFKFEFKK [F8K],good cell viabilities,–,–,minimal degradation,least susceptible,–,–
FKFEFKFK [FK],some level of cytotoxicity,–,low level of degradation,–,–,40%,–
KFEFKFEFKK [KF8K],good cell viabilities,–,–,–,most susceptible,–,~40%
